Assay results taken from patent US12084453B2, “Bicyclic amines as CDK12 inhibitors” (Incyte Corporation, priority 2021, dated 2024).

Biological target: T1, CDK12 complexed with Cyclin K (Homo sapiens, UniProt Q9NYV4)
T1 construct: GST (N); host or cells: baculovirus expression system
Test: CDK enzymatic assay (HTRF, LANCE Ultra kinase assay)
Format: biochemical
Conditions: 60 minutes pre-incubation with compound; 1 mM ATP
Experimental: The following activity of the CDK enzymes in complex with their respective cyclins we assayed: CDK1 complexed with Cyclin B1; CDK2 complexed with Cyclin E1; CDK4 complexed with Cyclin D1; CDK6 complexed with Cyclin D1; CDK6 complexed with Cyclin D3; CDK9 complexed with Cyclin T1; CDK7 complexed with Cyclin H/MAT1; CDK2 complexed with Cyclin A2; CDK5 complexed with p35; CDK12 complexed with Cyclin K; CDK13 complexed with Cyclin K. These in vitro enzyme activity are assayed using homogeneous time-resolved energy transfer (HTRF), which measures phosphorylation of a peptide substrate. The LANCE® Ultra kinase assay (PerkinElmer) uses a ULight™-labeled EIF4E-binding protein 1 (THR37/46) peptide (DYSTTPGGTLFSTTPGTRI (SEQ ID NO: 1)) substrate and a Europium-labeled anti-phospho-4E-BP1 antibody (CDK2, CDK1, CDK4, CDK6, CDK9, CDK12, CDK13) or ULight™-labeled Myelin Basic Protein peptide (VTPRTPPP (SEQ ID NO: 2)) substrate and a Europium-labeled anti-phospho-MBP antibody (CDK7). Each CDK enzyme activity assays utilized human CDK co-expressed as N-terminal GST-tagged protein with its full length cyclin partner using a baculovirus expression system.
Enzyme was pre-incubated with compounds for 30 minutes (CDK1,2,4,6,9) or 60 minutes (CDK7, CDK12, CDK13) prior to addition of ATP and Ulight-peptide (1 mM and 50 nM final, respectively), in assay buffer containing 50 mM HEPES pH 7.5, 1 mM EGTA, 10 mM MgCl2, 2 mM DTT, 0.05 mg/mL BSA, and 0.01% Tween 20. The reaction was then incubated for 60-90 minutes at room temperature. The reactions were stopped by the addition of EDTA and Europium labeled antibody, for a final concentration of 15 mM and 1.0-1.5 nM, respectively. HTRF signals were read after 15-120 minutes. A ratio of fluorescence transferred to the labeled substrate (665 nm) relative to fluorescence of the Europium donor (620 nm) represents the extent of phosphorylation. Ratios for treated wells were normalized to DMSO only (100% activity) and no enzyme (0% activity) controls. Normalized data was analyzed using a three or four parameter dose response curve to determine IC50 for each compound and are shown in Table A. Control reference inhibitors were included on each plate.

T1 sequence (Q9NYV4 whole entry): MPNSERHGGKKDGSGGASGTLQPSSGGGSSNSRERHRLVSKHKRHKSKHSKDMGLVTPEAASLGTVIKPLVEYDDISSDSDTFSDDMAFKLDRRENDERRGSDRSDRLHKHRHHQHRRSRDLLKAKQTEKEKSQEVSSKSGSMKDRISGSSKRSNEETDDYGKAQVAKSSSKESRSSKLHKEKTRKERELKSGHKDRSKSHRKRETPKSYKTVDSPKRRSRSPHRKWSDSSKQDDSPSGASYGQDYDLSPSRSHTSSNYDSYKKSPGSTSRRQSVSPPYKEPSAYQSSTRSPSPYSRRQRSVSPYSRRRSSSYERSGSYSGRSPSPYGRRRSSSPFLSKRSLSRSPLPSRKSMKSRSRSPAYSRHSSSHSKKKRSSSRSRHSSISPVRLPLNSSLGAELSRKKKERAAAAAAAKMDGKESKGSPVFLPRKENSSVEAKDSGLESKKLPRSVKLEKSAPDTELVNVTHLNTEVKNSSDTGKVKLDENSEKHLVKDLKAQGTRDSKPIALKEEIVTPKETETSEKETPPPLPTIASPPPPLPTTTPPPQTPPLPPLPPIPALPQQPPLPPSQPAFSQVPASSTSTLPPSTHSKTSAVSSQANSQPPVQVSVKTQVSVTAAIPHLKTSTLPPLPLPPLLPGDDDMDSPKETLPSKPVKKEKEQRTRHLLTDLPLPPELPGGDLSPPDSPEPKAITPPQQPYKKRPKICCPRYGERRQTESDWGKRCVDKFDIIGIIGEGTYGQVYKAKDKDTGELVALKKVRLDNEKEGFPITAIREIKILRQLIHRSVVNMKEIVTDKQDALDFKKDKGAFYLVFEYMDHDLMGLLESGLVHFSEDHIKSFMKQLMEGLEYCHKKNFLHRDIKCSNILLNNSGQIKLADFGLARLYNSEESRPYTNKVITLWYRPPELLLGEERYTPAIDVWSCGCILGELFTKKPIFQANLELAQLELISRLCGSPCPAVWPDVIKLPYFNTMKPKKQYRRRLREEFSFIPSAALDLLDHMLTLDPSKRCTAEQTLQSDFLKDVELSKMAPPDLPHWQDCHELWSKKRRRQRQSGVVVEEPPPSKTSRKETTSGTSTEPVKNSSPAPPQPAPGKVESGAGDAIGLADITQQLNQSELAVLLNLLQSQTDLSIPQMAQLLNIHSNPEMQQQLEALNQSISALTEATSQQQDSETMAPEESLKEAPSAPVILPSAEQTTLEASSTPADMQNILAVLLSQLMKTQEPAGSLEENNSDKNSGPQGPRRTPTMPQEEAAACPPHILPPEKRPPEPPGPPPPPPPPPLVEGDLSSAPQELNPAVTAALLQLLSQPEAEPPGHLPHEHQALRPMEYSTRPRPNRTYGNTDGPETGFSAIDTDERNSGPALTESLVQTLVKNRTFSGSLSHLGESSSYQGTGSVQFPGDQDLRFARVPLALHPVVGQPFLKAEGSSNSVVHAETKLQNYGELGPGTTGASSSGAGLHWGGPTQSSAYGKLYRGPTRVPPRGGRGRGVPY
T1 sequence (O75909 whole entry partner): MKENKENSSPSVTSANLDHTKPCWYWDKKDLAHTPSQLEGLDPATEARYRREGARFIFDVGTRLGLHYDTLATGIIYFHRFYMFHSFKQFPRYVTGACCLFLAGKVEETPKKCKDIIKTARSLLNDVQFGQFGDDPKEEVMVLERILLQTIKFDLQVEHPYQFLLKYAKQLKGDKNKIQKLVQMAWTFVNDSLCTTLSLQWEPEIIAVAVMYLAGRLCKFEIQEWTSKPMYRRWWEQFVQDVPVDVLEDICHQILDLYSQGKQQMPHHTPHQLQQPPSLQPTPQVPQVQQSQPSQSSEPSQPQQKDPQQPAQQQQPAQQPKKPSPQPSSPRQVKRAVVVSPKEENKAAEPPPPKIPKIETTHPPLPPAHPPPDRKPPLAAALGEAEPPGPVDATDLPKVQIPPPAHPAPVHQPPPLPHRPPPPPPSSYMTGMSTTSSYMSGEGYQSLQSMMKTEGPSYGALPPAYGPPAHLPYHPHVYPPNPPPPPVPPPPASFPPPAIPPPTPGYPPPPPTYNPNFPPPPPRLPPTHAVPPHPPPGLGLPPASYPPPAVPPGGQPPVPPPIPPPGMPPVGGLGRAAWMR

IC50 [nM] | Structure (SMILES)
< 50 | C=CC(=O)N(C)c1ccc(C(=O)N2CC[C@@H](Nc3nc4ccc(-c5cn[nH]c5)c(C(C)C)n4n3)C2)cc1 [Example 25, (R)-N-(4-(3-((5-Isopropyl-6-(1H-pyrazol-4-yl)-[1,2,4]triazolo[1,5-a]pyridin-2-yl)amino)pyrrolidine-1-carbonyl)phenyl)-N-methylacrylamide]
< 50 | C=C(F)C(=O)Nc1ccc(C(=O)N2CC[C@@H](Nc3nc4ccc(-c5cn[nH]c5)c(C(C)C)n4n3)C2)cc1 [Example 26, (R)-2-Fluoro-N-(4-(3-((5-isopropyl-6-(1H-pyrazol-4-yl)-[1,2,4]triazolo[1,5-a]pyridin-2-yl)amino)pyrrolidine-1-carbonyl)phenyl)acrylamide]
< 50 | C=CC(=O)Nc1ccc2sc(N3CCC[C@@H](Nc4nc5ccc(-c6cn[nH]c6)c(C(C)C)n5n4)C3)nc2c1 [Example 27, (R)-N-(2-(3-((5-Isopropyl-6-(1H-pyrazol-4-yl)-[1,2,4]triazolo[1,5-a]pyridin-2-yl)amino)piperidin-1-yl)benzo[d]thiazol-5-yl)acrylamide]
< 50 | C=CC(=O)Nc1ccc2c(c1)nc(N1CCC[C@@H](Nc3nc4ccc(-c5cn[nH]c5)c(C(C)C)n4n3)C1)n2C [Example 28, (R)-N-(2-(3-((5-Isopropyl-6-(1H-pyrazol-4-yl)-[1,2,4]triazolo[1,5-a]pyridin-2-yl)amino)piperidin-1-yl)-1-methyl-1H-benzo[d]imidazol-5-yl)acrylamide]
< 50 | C=CC(=O)Nc1ccc2sc(N3CCC[C@@H](Nc4nc5ccc(-c6cn[nH]c6)c(C)n5n4)C3)nc2c1 [Example 29, (R)-N-(2-(3-((5-Methyl-6-(1H-pyrazol-4-yl)-[1,2,4]triazolo[1,5-a]pyridin-2-yl)amino)piperidin-1-yl)benzo[d]thiazol-5-yl)acrylamide]
< 50 | C=CC(=O)Nc1ccc(C(=O)N2CC[C@@H](Nc3nc4ccc(-c5cn[nH]c5)c(C(F)(F)F)n4n3)C2)cc1 [Example 30, (R)-N-(4-(3-((6-(1H-Pyrazol-4-yl)-5-(trifluoromethyl)-[1,2,4]triazolo[1,5-a]pyridin-2-yl)amino)pyrrolidine-1-carbonyl)phenyl)acrylamide]
< 50 | C=C(F)C(=O)Nc1ccc(C(=O)N2CC[C@@H](Nc3nc4cc(-c5cn[nH]c5)ccn4n3)C2)cc1 [Example 31, (R)-N-(4-(3-((7-(1H-Pyrazol-4-yl)-[1,2,4]triazolo[1,5-a]pyridin-2-yl)amino)pyrrolidine-1-carbonyl)phenyl)-2-fluoroacrylamide]
< 50 | C=C(F)C(=O)Nc1ccc(C(=O)N2CC[C@@H](Nc3nc4c(C)c(-c5cn[nH]c5)ccn4n3)C2)cc1 [Example 32, (R)-2-Fluoro-N-(4-(3-((8-methyl-7-(1H-pyrazol-4-yl)-[1,2,4]triazolo[1,5-a]pyridin-2-yl)amino)pyrrolidine-1-carbonyl)phenyl)acrylamide]
< 50 | CC#CC(=O)Nc1ccc(C(=O)N2CC[C@@H](Nc3nc4c(C)c(-c5cn[nH]c5)ccn4n3)C2)cc1 [Example 33, (R)-N-(4-(3-((8-Methyl-7-(1H-pyrazol-4-yl)-[1,2,4]triazolo[1,5-a]pyridin-2-yl)amino)pyrrolidine-1-carbonyl)phenyl)but-2-ynamide]
< 50 | C=CC(=O)Nc1ccc2c(c1)C(=O)N([C@H]1CCC[C@@H](Nc3nc4ccc(-c5cn[nH]c5)c(C(F)(F)F)n4n3)C1)C2 [Example 34, N-(2-((1S,3R)-3-((6-(1H-pyrazol-4-yl)-5-(trifluoromethyl)-[1,2,4]triazolo[1,5-a]pyridin-2-yl)amino)cyclohexyl)-3-oxoisoindolin-5-yl)acrylamide]
< 50 | C=CC(=O)Nc1ccc2sc(N3CCC[C@@H](Nc4nc5ccc(-c6cn[nH]c6)c(C(F)(F)F)n5n4)C3)nc2c1 [Example 35, (R)-N-(2-(3-((6-(1H-pyrazol-4-yl)-5-(trifluoromethyl)-[1,2,4]triazolo[1,5-a]pyridin-2-yl)amino)piperidin-1-yl)benzo[d]thiazol-5-yl)acrylamide]
< 50 | C=CC(=O)Nc1ccc2c(c1)nc(N1CCC[C@@H](Nc3nc4ccc(-c5cn[nH]c5)c(C(F)(F)F)n4n3)C1)n2C [Example 36, (R)-N-(2-(3-((6-(1H-pyrazol-4-yl)-5-(trifluoromethyl)-[1,2,4]triazolo[1,5-a]pyridin-2-yl)amino)piperidin-1-yl)-1-methyl-1H-benzo[d]imidazol-5-yl)acrylamide]
< 50 | C=CC(=O)Nc1cnc(N2CCC[C@@H](Nc3nc4ccc(-c5cn[nH]c5)c(C(C)C)n4n3)C2)c(C)c1 [Example 37, (R)-N-(6-(3-((5-isopropyl-6-(1H-pyrazol-4-yl)-[1,2,4]triazolo[1,5-a]pyridin-2-yl)amino)piperidin-1-yl)-5-methylpyridin-3-yl)acrylamide]
< 50 | C=CC(=O)Nc1cnc(N2CCC[C@@H](Nc3nc4ccc(-c5cn[nH]c5)c(C(F)(F)F)n4n3)C2)c(C)c1 [Example 38, (R)-N-(6-(3-((6-(1H-pyrazol-4-yl)-5-(trifluoromethyl)-[1,2,4]triazolo[1,5-a]pyridin-2-yl)amino)piperidin-1-yl)-5-methylpyridin-3-yl)acrylamide]
